{"source": "patent US20100029752A1", "about": "“NOVEL COMPOUNDS, PHARMACEUTICAL COMPOSITIONS CONTAINING SAME, AND METHODS OF USE FOR SAME” (priority 2005, published 2010)", "key": {"HIV protease": {"biological_target": "HIV protease (Human immunodeficiency virus type 1 group M subtype B, UniProt P04585)", "conditions": "cited from earlier work"}, "[1]": {"tested_on": "Mycobacterium tuberculosis", "conditions": "in vitro; cited from earlier work"}, "Raji cells": {"tested_on": "Raji cells", "conditions": "cited from earlier work"}, "[2]": {"biological_target": "rat liver acyl-CoA synthetase", "conditions": "rat liver enzyme; read-out: 50% inhibition of rat liver acyl-CoA synthetase; cited from earlier work"}, "[3]": {"tested_on": "MCF-7 human breast cancer cells", "experiment": "XTT cytotoxicity assay (M / MCF7)", "type": "cell-based", "conditions": "MCF-7 cells, 72 hours", "protocol": "The XTT assay is a non-radioactive alternative for the [^51Cr] release cytotoxicity assay. XTT is a tetrazolium salt that is reduced to a formazan dye only by metabolically active, viable cells. The reduction of XTT is measured spectrophotometrically as OD490-OD650. To measure the cytotoxicity of specific compounds against cancer cells, 9×10^3 MCF-7 human breast cancer cells, obtained from the American Type Culture Collection are plated per well in 96 well plates in DMEM medium with 10% fetal bovine serum, insulin, penicillin, and streptomycin. Following overnight culture at 37° C. and 5% CO2, the compounds to be tested, dissolved in DMSO, are added to the wells in 1 μl volume at the following concentrations: 80, 40, 20, 10, 5, 2.5, 1.25, and 0.625 μg/ml in triplicate. Additional concentrations are tested if required. 1 μl of DMSO is added to triplicate wells are the vehicle control. C75 is run at 40, 20, […], and 5 μg/ml in triplicate as positive controls. After 72 hours of incubation, cells are incubated for 4 hours with the XTT reagent as per manufacturer's instructions (Cell Proliferation Kit 11 (XTT) Roche). Plates are read at OD490 and OD650 on a Molecular Devices SpectraMax Plus Spectrophotometer. Three wells containing the XTT reagent without cells serve as the plate blank. XTT data are reported as OD490-OD650. Averages and standard error of the mean are computed using SOFTmax Pro software ([…]). The IC50 for the compounds is defined as the concentration of drug leading to a 50% reduction in OD490-OD650 compared to controls. The OD490-OD650 are computed by the SOFTmax PRO software (Molecular Devices) for each compound concentration. IC50 is calculated by linear regression, plotting the FAS activity as percent of control versus drug concentrations. Linear regression, best-fit line, r^2, and 95% confidence intervals are determined using Prism Version 3.0 (Graph Pad Software)."}, "OV": {"tested_on": "OV", "experiment": "XTT cytotoxicity assay (OV)", "type": "cell-based", "conditions": "(OV) cells", "protocol": "The XTT assay is a non-radioactive alternative for the [^51Cr] release cytotoxicity assay. XTT is a tetrazolium salt that is reduced to a formazan dye only by metabolically active, viable cells. The reduction of XTT is measured spectrophotometrically as OD490-OD650. After 72 hours of incubation, cells are incubated for 4 hours with the XTT reagent as per manufacturer's instructions (Cell Proliferation Kit 11 (XTT) Roche). Plates are read at OD490 and OD650 on a Molecular Devices SpectraMax Plus Spectrophotometer. Three wells containing the XTT reagent without cells serve as the plate blank. XTT data are reported as OD490-OD650. Averages and standard error of the mean are computed using SOFTmax Pro software (Molecular Dynamics). The IC50 for the compounds is defined as the concentration of drug leading to a 50% reduction in OD490-OD650 compared to controls. The OD490-OD650 are computed by the SOFTmax PRO software (Molecular Devices) for each compound concentration. IC50 is calculated by linear regression, plotting the FAS activity as percent of control versus drug concentrations. Linear regression, best-fit line, r^2, and 95% confidence intervals are determined using Prism Version 3.0 (Graph Pad Software)."}, "FAS": {"biological_target": "T1, FAS (Homo sapiens, UniProt P49327)", "T1 construct": "Human FAS was purified from cultured ZR-75-1 human breast cancer cells; endogenous in cells", "T1 sequence (P49327 whole entry)": "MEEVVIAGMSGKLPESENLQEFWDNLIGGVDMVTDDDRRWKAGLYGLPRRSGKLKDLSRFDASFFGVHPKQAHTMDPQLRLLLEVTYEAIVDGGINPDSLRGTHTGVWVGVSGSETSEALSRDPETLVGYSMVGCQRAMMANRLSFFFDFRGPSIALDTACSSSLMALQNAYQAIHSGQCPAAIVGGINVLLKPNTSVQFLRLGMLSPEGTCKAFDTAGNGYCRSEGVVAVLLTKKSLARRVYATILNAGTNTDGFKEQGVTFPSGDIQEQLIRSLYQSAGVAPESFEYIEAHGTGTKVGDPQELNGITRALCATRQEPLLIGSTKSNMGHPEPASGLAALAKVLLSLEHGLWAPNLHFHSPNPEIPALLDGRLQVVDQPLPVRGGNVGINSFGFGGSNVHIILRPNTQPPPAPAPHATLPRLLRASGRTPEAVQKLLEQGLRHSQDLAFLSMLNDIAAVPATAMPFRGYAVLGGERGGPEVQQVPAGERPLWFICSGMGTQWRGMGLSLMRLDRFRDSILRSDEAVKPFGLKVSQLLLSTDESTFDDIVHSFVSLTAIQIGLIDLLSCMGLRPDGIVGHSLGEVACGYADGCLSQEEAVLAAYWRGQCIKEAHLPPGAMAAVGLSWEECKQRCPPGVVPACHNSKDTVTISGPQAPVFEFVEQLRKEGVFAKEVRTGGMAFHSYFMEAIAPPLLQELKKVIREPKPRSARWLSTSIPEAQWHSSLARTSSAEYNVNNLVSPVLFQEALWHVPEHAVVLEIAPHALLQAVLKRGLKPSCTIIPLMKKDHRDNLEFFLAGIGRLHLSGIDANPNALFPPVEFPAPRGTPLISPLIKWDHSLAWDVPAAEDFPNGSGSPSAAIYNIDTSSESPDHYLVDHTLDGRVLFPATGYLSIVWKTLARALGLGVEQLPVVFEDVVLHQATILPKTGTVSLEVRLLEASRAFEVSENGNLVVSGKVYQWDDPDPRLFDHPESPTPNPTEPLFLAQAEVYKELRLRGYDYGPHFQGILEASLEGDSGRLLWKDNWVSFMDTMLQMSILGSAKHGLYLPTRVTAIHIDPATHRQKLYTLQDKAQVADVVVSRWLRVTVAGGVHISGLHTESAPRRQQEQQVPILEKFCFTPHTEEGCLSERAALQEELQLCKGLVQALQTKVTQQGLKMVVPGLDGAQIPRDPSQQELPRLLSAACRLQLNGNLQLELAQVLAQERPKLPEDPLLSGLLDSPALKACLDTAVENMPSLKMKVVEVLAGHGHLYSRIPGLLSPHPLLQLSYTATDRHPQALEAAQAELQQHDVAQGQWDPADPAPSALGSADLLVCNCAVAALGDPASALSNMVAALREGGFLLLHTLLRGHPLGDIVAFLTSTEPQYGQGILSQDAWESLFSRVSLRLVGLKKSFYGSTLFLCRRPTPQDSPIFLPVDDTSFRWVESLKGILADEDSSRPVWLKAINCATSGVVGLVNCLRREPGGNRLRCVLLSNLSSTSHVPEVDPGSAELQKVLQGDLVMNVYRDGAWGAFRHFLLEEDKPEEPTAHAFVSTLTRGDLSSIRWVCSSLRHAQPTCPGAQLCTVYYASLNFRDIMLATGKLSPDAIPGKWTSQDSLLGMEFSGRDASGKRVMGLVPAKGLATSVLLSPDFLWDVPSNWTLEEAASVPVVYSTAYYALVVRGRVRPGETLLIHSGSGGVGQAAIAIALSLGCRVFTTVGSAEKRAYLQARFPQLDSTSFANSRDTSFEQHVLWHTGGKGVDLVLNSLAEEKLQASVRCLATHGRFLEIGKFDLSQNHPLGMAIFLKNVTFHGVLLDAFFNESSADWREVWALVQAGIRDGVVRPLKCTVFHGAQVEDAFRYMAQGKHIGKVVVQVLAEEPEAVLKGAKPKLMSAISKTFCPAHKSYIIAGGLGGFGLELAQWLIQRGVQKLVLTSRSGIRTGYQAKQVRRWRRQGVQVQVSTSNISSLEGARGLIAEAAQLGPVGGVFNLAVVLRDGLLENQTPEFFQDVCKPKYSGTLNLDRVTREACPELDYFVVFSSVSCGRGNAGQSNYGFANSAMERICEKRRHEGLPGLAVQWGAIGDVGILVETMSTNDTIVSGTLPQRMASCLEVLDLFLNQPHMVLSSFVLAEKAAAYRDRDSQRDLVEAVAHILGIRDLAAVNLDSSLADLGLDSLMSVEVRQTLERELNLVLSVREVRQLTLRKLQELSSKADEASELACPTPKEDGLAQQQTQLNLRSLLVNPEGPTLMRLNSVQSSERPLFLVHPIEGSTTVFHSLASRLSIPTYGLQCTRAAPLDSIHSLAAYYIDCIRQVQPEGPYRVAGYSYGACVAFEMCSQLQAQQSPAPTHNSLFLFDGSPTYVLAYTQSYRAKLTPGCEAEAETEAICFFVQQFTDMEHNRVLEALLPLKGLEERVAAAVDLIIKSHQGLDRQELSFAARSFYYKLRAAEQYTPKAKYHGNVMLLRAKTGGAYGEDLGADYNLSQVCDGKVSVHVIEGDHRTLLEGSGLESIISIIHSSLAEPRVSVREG", "experiment": "FAS (IC50) marked (SB)", "type": "biochemical", "conditions": "value marked (SB), not defined"}, "[4]": {"tested_on": "MCF-7 human breast cancer cells", "experiment": "Crystal violet cell growth assay", "type": "cell-based", "conditions": "MCF7, MCF-7 cells, 72 hours, read-out: Cr. Violet (IC50)", "protocol": "The crystal violet assay measures cell growth but not cytotoxicity. This assay employs crystal violet staining of fixed cells in 96-well plates with subsequent solubilization and measurement of OD490 on a spectrophotometer. The OD490 corresponds to cell growth per unit time measured. Cells are treated with the compounds of interest or vehicle controls and IC50 for each compound is computed.\nTo measure the cytotoxicity of specific compounds against cancer cells, 5×10^4 MCF-7 human breast cancer cells, obtained from the American Type Culture Collection are plated per well in 24 well plates in DMEM medium with 10% fetal bovine serum, penicillin, and streptomycin. Following overnight culture at 37° C. and 5% CO2, the compounds to be tested, dissolved in DMSO, are added to the wells in 1 μl volume at the following concentrations: 50, 40, 30, 20, and 10 μg/ml in triplicate. Additional concentrations are tested if required. 1 μl of DMSO is added to triplicate wells are the vehicle control. C75 is run at 10, and 5 μg/ml in triplicate as positive controls.\nAfter 72 hours of incubation, cells are stained with 0.5 ml of Crystal Violet stain (0.5% in 25% methanol) in each well. After 10 minutes, wells are rinsed, air dried, and then solubilized with 0.5 ml 10% sodium dodecylsulfate with shaking for 2 hours. Following transfer of 100 μl from each well to a 96-well plate, plates are read at OD490 on a Molecular Devices SpectraMax Plus Spectrophotometer Average OD490 values are computed using SOFTmax Pro Software (Molecular Devices) and IC50 values are determined by linear regression analysis using Prism version 3.02 (Graph Pad Software, San Diego)."}, "[5]": {"tested_on": "fatty acid synthesis pathway activity in MCF-7 human breast cancer cells", "experiment": "[14C]acetate incorporation into total lipids", "type": "cell-based", "conditions": "Homo sapiens, MCF7; MCF-7 cells, [14C]acetate into lipids", "protocol": "This assay measures the incorporation of [^14C]acetate into total lipids and is a measure of fatty acid synthesis pathway activity in vitro. It is utilized to measure inhibition of fatty acid synthesis in vitro.\nMCF-7 human breast cancer cells cultured as above, are plated at 5×10^4 cells per well in 24-well plates. Following overnight incubation, the compounds to be tested, solubilized in DMSO, are added at 5, 10, and 20 μg/ml in triplicate, with lower concentrations tested if necessary. DMSO is added to triplicate wells for a vehicle control. C75 is run at 5 and 10 μg/ml in triplicate as positive controls. After 4 hours of incubation, 0.25 μCi of [^14C]acetate (10 μl volume) is added to each well.\nAfter 2 hours of additional incubation, medium is aspirated from the wells and 800 μl of chloroform:methanol (2:1) and 700 μl of 4 mM MgCl2 is added to each well. Contents of each well are transferred to 1.5 Eppendorf tubes, and spun at full-speed for 2 minutes in a high-speed Eppendorf Microcentrifuge 5415D. After removal of the aqueous (upper) layer, an additional 700 μl of chloroform:methanol (2:1) and 500 μl of 4 mM MgCl2 are added to each tube and then centrifuged for 1 minutes as above. The aqueous layer is removed with a Pasteur pipette and discarded. An additional 400 μl of chloroform:methanol (2:1) and 200 μl of 4 mM MgCl2 are added to each tube, then centrifuged and aqueous layer is discarded. The lower (organic) phase is transferred into a scintillation vial and dried at 40° C. under N2 gas. Once dried, 3 ml of scintillant (APB #NBC5104) is added and vials are counted for ^14C. The Beckman Scintillation counter calculates the average cpm values for triplicates.\nThe IC50 for the compounds is defined as the concentration of drug leading to a 50% reduction in [^14C]acetate incorporation into lipids compared to controls. This is determined by plotting the average cpm for each inhibitor concentration tested, performing linear regression and computing the best-fit line, r^2 values, and 95% confidence intervals. The average cpm values are computed by the Beckman scintillation counter (Model LS6500) for each compound concentration. Computation of linear regression, best-fit line, r^2, and 95% confidence intervals are calculated using Prism Version 3.0 (Graph Pad Software)."}, "Weight loss screen": {"experiment": "Weight loss screen", "type": "in vivo, Balb/C mice", "conditions": "60 mg/kg intraperitoneally, day 2", "protocol": "Balb/C mice (Jackson Labs) are utilized for the initial weight loss screening. Animals are housed in temperature and 12 hour day/night cycle rooms and fed mouse chow and water ad lib. Three mice are utilized for each compound tested with vehicle controls in triplicate per experiment. For the experiments, mice are housed separately for each compound tested three mice to a cage. Compounds are diluted in DMSO at 10 mg/ml and mice are injected intraperitoneally with 60 mg/kg in approximately 100 μl of DMSO or with vehicle alone. Mice are observed and weighed daily; average weights and standard errors are computed with Excel (Microsoft). The experiment continues until treated animals reach their pretreatment weights. Select compounds are tested in animals housed in metabolic cages. Dosing of animals are identical to the screening experiments with three animals to a single metabolic cage. Animal weights, water and food consumption, and urine and feces production are measured daily."}}}
{"compound": "C/C=C/C/C=C/CCC(=O)[C@H]1O[C@H]1C(N)=O", "note": "[cerulenin, (2S,3R)-2,3-epoxy-4-oxo-7,10 dodecadienoyl amide]", "values": [{"measurement": "concentration for inhibition of viral HIV protease", "setting": "HIV protease", "value": 5, "unit": "mg/mL"}, {"measurement": "activity against Mycobacterium tuberculosis", "setting": "[1]", "value": "no activity"}]}
{"compound": "CCCC=CCC=CC=CC=NN=NO", "note": "[Triacsin C, 1-hydroxy-3-(E, E, E-2′,4′,7′-undecatrienylidine) triazene]", "values": [{"measurement": "concentration causing growth inhibition in Raji cells", "setting": "Raji cells", "value": 1.0, "unit": "µM"}, {"measurement": "IC50", "setting": "[2]", "value": 8.7, "unit": "µM"}]}
{"compound": "O=C(NNc1ccc(Cl)cc1)c1cc(O)cs1", "values": [{"measurement": "IC50", "setting": "[3]", "value": 56.9, "unit": "µg/mL"}, {"measurement": "IC50", "setting": "OV", "value": 30, "unit": "µg/mL"}, {"measurement": "IC50", "setting": "FAS", "value": 510, "unit": "µM"}]}
{"compound": "CCCCCCCCNC(=O)c1cc(OCC(=O)OC)cs1", "values": [{"measurement": "IC50", "setting": "[3]", "value": "41.1 ± 2.6", "unit": "µg/mL"}, {"measurement": "IC50", "setting": "OV", "value": 55, "unit": "µg/mL"}, {"measurement": "FAS (IC50) (SB)", "setting": "FAS", "value": "Neg (SB)"}, {"measurement": "IC50", "setting": "[4]", "value": 43.4, "unit": "µg/mL"}, {"measurement": "IC50", "setting": "[5]", "value": 15.8, "unit": "µg/mL"}]}
{"compound": "O=C(NNC(=O)c1cc(O)cs1)c1ccco1", "values": [{"measurement": "IC50", "setting": "[3]", "value": "> 80", "unit": "µg/mL"}, {"measurement": "IC50", "setting": "OV", "value": "> 80", "unit": "µg/mL"}, {"measurement": "Weight Loss", "setting": "Weight loss screen", "value": "60 mg/kg: 1.5% (day 2)"}, {"measurement": "IC50", "setting": "FAS", "value": 135, "unit": "µM"}]}
